According to patent US5449773A, “Platinum complexes of sucrose derivatives” (priority 1995, dated 1995):
Entries after “also recorded” stand apart in the source; their conditions may differ. Where two headings read alike, the source gives them in different places.

Columns and labels:
[1] = system: human KB cell cultures
Experimental: (§1) The cytotoxicity of diaminosucrose platinum complexes was evaluated on human KB cell cultures as follows:
(§2) Graded doses of the respective diaminosucrose platinum (II) complexes tested contained in 0.1 ml of MEM medium were added to tube cultures of KB cells (contained in 1 ml of MEM medium with 4% fetal calf serum) immediately after seeding of ca. 2×10,000 cells/mi.
(§3) The incubated cultures were seeded every 3 days by 3 times dilution with the particular complex tested to maintain exponential cell growth.
(§4) After incubation the relative cytotoxic activity of the various platinum complexes was evaluated as follows:
(§5) Treated and untreated (control) tumor cell lines were viewed under the microscope and the number of dead cells quantified by visual means. Zero activity means that 100% of the treated cells survived, i.e., like the control.

[2] = system: E. coli; conditions: cited from earlier work
[3] = system: human KB cell cultures; assay: Cytotoxicity test on human KB cell cultures (Examples 8 and 9); conditions: cells continuously cultured with the complex
Experimental: as §1, §2, §3, §4, §5

[4] = system: Lewis lung carcinoma; assay: Effect on intraperitoneally implanted Lewis lung carcinoma in mice (Examples 10 and 12);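 further: C57BL/6 mice bearing Lewis lung tumor cells implanted intraperitoneally, treated intraperitoneally in distilled water starting day 1 after implantation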
Experimental: Young adult syngeneic C57BL/6 mice (ca. 17-19 grams) were implanted intraperitoneally with 3-5×10^5 Lewis Lung tumor cells. The respective diaminosucrose platinum (II) compounds were then administered intraperitoneally in distilled water commencing the first day after tumor implantation.
Lewis Lung tumor cells (3-5×10^5) were inoculated intraperitoneally (i.p.) into young adult syngeneic C57BL/6 mice (ca. 17-19g body weight). Administration of the platinum complexes (contained in 0.1 ml of distilled water) was started on day 1 after tumor implantation.

[5] = cells; cited from earlier work
[6] = system: P388 leukemia; assay: Effect of sucrose bis(platinum) complex on P388 leukemia in syngeneic DBA/2 mice (Example 15); assay type: in vivo
From the text: The effect of the sucrose bis(platinum) complex on P388 leukemia cells in syngeneic DBA/2 mice was further evaluated.

[7] = system: human KB cell cultures; assay: Cytotoxicity test of sucrose mono-, bis- and tris(platinum) complexes on human KB cell cultures (Example 11); assay type: cell-based; conditions: 10 μg/ml
Experimental: Cultures were seeded after 3 days by 3 times dilution with the platinum complex in order to maintain exponential growth.
The platinum complexes tested were cis-platin, a mono(platinum) complex of 6,6'-diamino-6,6'-dideoxy-1',2,3,3',4,4'-hexa-O-methylsucrose, a bis(platinum) complex of 6,6'-diamino-6,6'-dideoxy-1',2-anhydrosucrose and a tris(platinum) complex of 1',6,6' -triamino-1',6,6'-trideoxy-2,3,3',4,4'-penta-O-methylsucrose.

[8] = system: P388 leukemia; assay: Effect of dose of sucrose bis(platinum) complex on P388 leukemia in syngeneic DBA/2 mice (Example 14); assay type: in vivo; conditions: for Changes of body weight day 1 to 2 / Increase in life span / Mean survival time: day 1
Experimental: The effect of dose of sucrose bis(platinum complex on P388 leukemia cells in syngeneic DBA/2 mice was evaluated. A 0.1 ml of 10× dilution of P388 ascites (ca. 10^6 cells) was injected intraperitoneally (i.p.) into syngeneic DBA/2 mice (ca. 20 g body weight). The i.p. administration was effected on day 1 only. The bis(platinum) complex (1.0 mg/0.1 ml distilled water) had been stored for 77 days at 4° C. before administration.

[9] = system: Lewis lung carcinoma; assay: Effect of dose of sucrose bis(platinum) complex on intraperitoneally implanted Lewis lung carcinoma in mice (Example 13); assay type: in vivo
Experimental: The effect of dosage of the sucrose bis(platinum) complex on intraperitoneally implanted Lewis lung carcinoma cells was evaluated in mice. […] Administration of the complex (in 0.1 ml of distilled water) was effected on day 2 and day 4 after implantation.

[10] = Solubility of sucrose platinum complexes; assay type: physicochemical; conditions: water, limits the dose
[11] = 2 mg×2 i.p., listed as sucrose bis(platinum) complex
[12] = 0.5 mg/mouse i.p., day 1, 2, 3, 6

COCC1(OC2OC(CN)C(OC)C(OC)C2OC)OC(CN)C(OC)C1OC.O=C1[O][Pt][O]C(=O)C12CC2 (stereo not drawn) [Sample No. 5, N,N'-(cis-[1,1-cyclopropanedicarboxylato-platinato)]-6,6'-diamino-6,6'-dideoxy-1',2,3,3',4,4'-hexa-O-methylsucrose]
cytotoxicity (in words) [1]: not very toxic

N.N.[Cl][Pt]([Cl])([Cl])[Cl] [cis-cis-trans-diaminetetrachloroplatinum (IV)]
prevention of DNA replication (in words) [2]: have the ability to prevent DNA replication in E. coli

COCC1(OC2OC(CN)C(OC)C(OC)C2OC)OC(CN)C(OC)C1OC.[Cl][Pt][Cl] (stereo not drawn) [Sample No. 2, N-N'-(cis-dichloroplatinato)-6,6'-diamino-6,6'-dideoxy-1',2,3,3',4,4'-hexa-O-methylsucrose]
minimum cytotoxic concentration [3]: 125 µg/mL
Changes of body weight day 1 to 7 ([4]; 2 mg/mouse i.p., day 1, 3): +2.0 g
Increase in life span ([4]; 2 mg/mouse i.p., day 1, 3): -1%
Mean survival days ([4]; 2 mg/mouse i.p., day 1, 3): 13.8 days
No. of mice survival/total ([4]; 2 mg/mouse i.p., day 1, 3): 0/5
antitumor activity (in words) ([4]; 2 mg×2 i.p.): no antitumor activity
toxicity to the host / body weight (in words) ([4]; 2 mg×2 i.p., listed as sucrose mono(platinum) complex): no antitumor activity nor toxicity to the host

NC1C(O)OC(CO)C(O)C1O.[NH2][Pt]([Cl])[Cl] (centres unmarked) [Sample No. 11, N-(amminedichloroplatinato)-2-aminoglucose]
cytotoxicity (in words) [1]: appears not to exhibit toxicity immediately but rather exhibits a delayed toxic response which occurs gradually during the incubation period

N.N.[Cl][Pt][Cl] [Sample No. 1, Cis-dichlorodiamine platinum]
prevention of DNA replication (in words) ([2]; listed as cisplatin): have the ability to prevent DNA replication in E. coli
saturability and inhibition of accumulation (in words) [5]: accumulation is not saturable up to 3 mM cisplatin and cannot be inhibited with structural analogs

N.N.NCC1OC2OC3(COC2C(O)C1O)OC(CN)C(O)C3O.[Cl][Pt][Cl].[Cl][Pt][Cl] (stereo not drawn) [Sample No. 6, N,N'-bis[cis-amminedichloroplatinato]-6,6'-diamino-6,6'-dideoxy-1',2-anhydrosucrose]
Changes of body weight day 1 to 2 ([6]; 1.0 mg/mouse i.p., day 1): -1.0 g
Increase in life span ([6]; 1.0 mg/mouse i.p., day 1): > 89%
Mean survival time ([6]; 1.0 mg/mouse i.p., day 1): > 16.6
prolongation of survival time over the controls ([6]; dose of 1.0): 84%
antitumor activity / cure (in words) ([6]; dose of 1.0, listed as sucrose bis(platinum) complex): significant antitumor activity; also recorded: one mouse appearing cured
Cytotoxicity ([7]; 11.2 nM, 14 days incubation): 3+ (66% of the treated cells appear to be dead)
antitumor activity (in words) ([8]; 0.1 mg i.p.): no antitumor activity
Changes of body weight day 1 to 2 ([8]; 0.1 mg/mouse i.p.): -0.2 g
Increase in life span ([8]; 0.1 mg/mouse i.p.): 16%
Mean survival time ([8]; 0.1 mg/mouse i.p.): > 8.8
antitumor activity (in words) ([8]; 2 mg / high doses, i.p., listed as sucrose bis(platinum) complex): significant antitumor activity; also recorded: definite antitumor activity
Changes of body weight day 1 to 2 ([8]; 2 mg/mouse i.p.): -1.5 g
Increase in life span ([8]; 2 mg/mouse i.p.): > 111%
Mean survival time ([8]; 2 mg/mouse i.p.): > 16.0
activity against P388 leukemia compared with cisplatin (in words) ([8]; high doses): comparable to that of cisplatin against P388 leukemia
systemic toxicity (in words) ([8]; high doses): still not toxic systemically
minimum cytotoxic concentration [3]: 10 µg/mL
Changes of body weight day 1 to 7 ([9]; 0.1 mg/mouse i.p., day 2, 4): +2.0 g
Increase in life span ([9]; 0.1 mg/mouse i.p., day 2, 4): > 135%
Mean survival time ([9]; 0.1 mg/mouse i.p., day 2, 4): > 48.8
antitumor activity (in words) ([9]; 0.1 mg×2 i.p.): significant antitumor activity
tumor-free survival (in words) ([9]; 0.1 mg×2 i.p., observation to day 50): Three mice survived healthy and tumor-free up to the end of the observation period (day 50)
Changes of body weight day 1 to 7 ([4]; 2 mg/mouse i.p., day 1, 3): -3.0 g
Increase in life span ([4]; 2 mg/mouse i.p., day 1, 3): > 210%
Mean survival days ([4]; 2 mg/mouse i.p., day 1, 3): > 43.4 days
No. of mice survival/total ([4]; 2 mg/mouse i.p., day 1, 3): 3/5
antitumor activity (in words) ([4]; 2 mg×2 i.p.): substantial antitumor activity
recovery, survival and tumor-free outcome (in words) ([4]; 2 mg×2 i.p.): All of the mice treated, however, recovered the loss of body weight and were tumor-free by day 30
toxicity to the host / body weight (in words) ([4]; 2 mg×2 i.p.): significant reduction of body weight
antitumor activity (in words) [4, 11]: remarkable antitumor activity
recovery, survival and tumor-free outcome (in words) [4, 11]: All the mice treated gradually recovered from the toxicity; however, 2 mice died of tumor growth on days 32 and 35. Three mice survived healthy and tumor-free up to the end of the observation period (day 50)
maximum tolerable dose ([4]; i.p., per mouse, judged from body weight loss): ~2 mg×2

NCCN.O=C1[O][Pt][O]C(=O)C12CC2 [Sample No. 9, cis-(ethylenediamino-N,N')-1,1-cyclopropanedicarboxylatoplatinum]
cytotoxicity (in words) [1]: more toxic than Sample No. 10 or Sample No. 6

N.N.[Cl-].[Cl-].[OH-].[OH-].[Pt+4] [cis, cis-diamine-dichloro-trans-dihydroxoplatinum (IV)]
prevention of DNA replication (in words) [2]: have the ability to prevent DNA replication in E. coli

COC1C(CN)OC(OC2(CN)OC(CN)C(OC)C2OC)C(OC)C1OC.[NH2][Pt]([Cl])[Cl].[NH2][Pt]([Cl])[Cl].[NH2][Pt]([Cl])[Cl] (stereo not drawn) [Sample No. 7, N,N',N"-tris[cis-amminedichloroplatinato]-1'6,6'-triamino-1',6,6'-trideoxy-2,3,3',4,4'-penta-O-methylsucrose]
Cytotoxicity ([7]; 7.9 nM, 10 days incubation): 3+ (66% of the treated cells appear to be dead)
minimum cytotoxic concentration [3]: 10 µg/mL
aqueous solubility (in words) [10]: Larger dosages were not possible because of the solubility constraints
aqueous solubility (in words) ([10]; listed as sucrose tris(platinum) complex): limited solubility
Changes of body weight day 1 to 7 [4, 12]: -0.8 g
Increase in life span [4, 12]: > 255%
Mean survival days [4, 12]: > 39.8 days
No. of mice survival/total [4, 12]: 3/5
antitumor activity (in words) ([4]; 0.5 mg×4 i.p.): remarkable antitumor activity
reduction of body weight (in words) ([4]; 0.5 mg×4 i.p.): moderate reduction of body weight
survival and tumor-free outcome (in words) ([4]; 0.5 mg×4 i.p., observation to day 50): Two mice died of tumor growth on day 22 and day 27. Three mice survived tumor-free until the end of the observation period (day 50)
reduction of body weight (in words) ([4]; 0.5 mg×4 i.p., listed as sucrose tris(platinum) complex): moderate .reduction in body weight

N.N.[Cl][Pt][Cl] [transplatin, trans-diamine-dichloroplatinum (II)]
prevention of DNA replication (in words) [2]: does not comprise this activity
